The source of these data is article PMC12566511, “The Evaluation of (1R,4R,7R,10R)-α,α′,α″,α‴-Tetramethyl-1,4,7,10-tetraazacyclododecane-1,4,7,10-tetraacetic Acid (DOTMA) as a Chelator for Zirconium-89” (Molecules, 2025).

As a reminder, the LogP is a log measure of how a compound divides between an organic and an aqueous phase.

A short description of series [1]: Solubility of the non-radioactive complex in conventional solvents. It is filed as physicochemical. The conditions noted are these: every conventional solvent tested. The text has this:
As with our previous studies and to assist in our understanding of the chemical reactivity of this ligand with ^89Zr, we attempted to characterize the Zr-DOTMA complex. Unfortunately, the synthesis of Zr-DOTMA was problematic. […] This insolubility prevented any rigorous characterization using standard analytical techniques such as solution NMR, mass spectrometry, or single crystal X-ray diffraction analysis. Thus, to provide some characterization data, we completed solid-state NMR of Zr-DOTMA and compared its spectrum with that of the DOTMA ligand (Figures S1 and S2). Briefly, the C-13 spectrum of the DOTMA ligand is composed of four groups of resonances consistent with CH3, CH2, CH, and COO^−. The spectra are assigned as COO^− near 182 ppm, CH at 58 ppm, CH2 centered near 48 ppm, and four methyl resonances near 9.5 ppm. The CH3 is attached to a chiral carbon atom at a stereogenic center. In contrast to the ligand spectra, the Zr-DOTMA spectrum is comprised of a major crystalline phase, apparently with Z’ = 1 having resonances consistent with CH3, CH2, CH, and COO at 11, 47, 66, and 179 ppm, respectively. It also has minor resonances near 52, 62, and 174 ppm. The resonances near 174 are composed of at least three unique carbons but, based on linewidth, appear to be crystalline in nature. The methyl groups are magnetically inequivalent.

The conditions of series [2]: cited from earlier work.
Details of series [3]: method as in PMID 28451334. The conditions noted are these: normal mice, cited from earlier work.

Read-outs that look alike come from different tables or passages of the source.

On to `C[C@H](C(=O)[O-])N1CCN([C@H](C)C(=O)[O-])CCN([C@H](C)C(=O)[O-])CCN([C@H](C)C(=O)[O-])CC1.[Zr+4]` [Zr-DOTMA, Zirconium (1R,4R,7R,10R)-α,α′,α″,α‴-Tetramethyl-1,4,7,10-tetraazacyclododecane-1,4,7,10-tetraacetic Acid], for which, in series [1], the “solubility (in words)” value was “insoluble in every conventional solvent tested”.
As for `O=C([O-])CN1CCN(CC(=O)[O-])Cc2cccc(n2)CN(CC(=O)[O-])CC1.[89Zr+4]` [[^89Zr]Zr-PCTA], the LogP in series [2] (previously reported results) was −3.09 ± 0.03.
Regarding `CC(=O)N([O-])CCCCCNC(=O)CCC(=O)N([O-])CCCCCNC(=O)CCC(=O)N([O-])CCCCCN.[89Zr+4]` [[^89Zr]Zr-DFO], the LogP in series [2] (previously reported results) was −2.83 ± 0.03. Further, in series [3] (bone), the “bone (72 h p.i., %ID/g ± SD)” value is listed as 0.079 ± 0.006 %ID/g. The “kidney (72 h p.i., %ID/g ± SD)” value in series [3] (kidney) was 0.69 ± 0.09 %ID/g. Besides, in series [3] (liver), the “liver (72 h p.i., %ID/g ± SD)” value is 0.066 ± 0.009 %ID/g.
For `O=C([O-])CN1CCN(CC(=O)[O-])CCN(CC(=O)[O-])CCN(CC(=O)[O-])CC1.[89Zr+4]` [[^89Zr]Zr-DOTA], the LogP in series [2] (value reported) was −3.80 ± 0.04.
